{"source": "patent US20070092939A1", "about": "“HUMAN IMMUNODEFICIENCY VIRUS ENTRY INHIBITOR ASSAY” (priority 2003, published 2007)", "system": "co-cultivation-induced fusion between HL2/3 and HeLa-CD4-LTR-β-gal cells", "assay": "Cell fusion assay by co-cultivation of HL2/3 and HeLa-CD4-LTR-β-gal cells, β-galactosidase chemiluminescence readout", "format": "cell-based", "conditions": "for Response Chemiluminescence / Response Inhibition (%): Table 1; for Chemiluminescence / Inhibition: Table 2 specificity test", "description": "Depending on the culture vessel (T75 or T175), 0.5−2.0×10^6 HL2/3 or HeLa-CD4-LTR-β-gal cells were seeded into their respective Propagation Medium (for HL2/3, DMEM containing 10% FBS and 0.5 mg/ml G418; for HeLa-CD4-LTR-β-gal, DMEM containing 10% FBS, 0.2 mg/ml G418, and 0.1 mg/ml hygromycin B). Culture at 37° C. with 95% air/5% CO2 until the cultures reach 60% confluency, but can not exceed 95% confluency.\nRemove medium by aspiration with 2-ml of glass pipette. Add 5 ml (for T75 flask) or 10 ml (for T175 flask) of the cell dissociation buffer (CDB). Incubate at room temperature for at least 20 minutes. While waiting, prepare potential entry inhibitor (e.g. TNX-355) with cold Assay Medium (DMEM supplemented with 10% FBS) for treatment. Harvest cells in a 15-ml (for T75) or 50-ml (for T175) conical centrifuge tube by repeated pipetting. Determine cell density and viability in 100 μl of samples with Trypan Blue Exclusion method. Centrifuge at 1000 rpm (or 201×g) for 5 minutes. Discard supernatant and resuspend cells in pre-warmed Assay Medium at a cell density of 1×10^6 cells/ml (for HeLa-CD4-LTR-β-gal cells) or 2×10^6 cells/ml (for HL2/3 cells).\nFurther dilute HeLa-CD4-LTR-β-gal cells to 0.25×10^6 cells/ml with pre-warmed Assay Medium, and pipette 90 μl to each well of a 96-well clear-bottom white-wall plate using a 12-channel pipet. Add 20 μl of drug or medium to each well as needed. Further dilute HL2/3 cells to 0.5×10^6 cells/ml with pre-warmed Assay Medium, and pipette 90 μl to each well of a 96-well clear-bottom white-wall plate using a 12-channel pipet. Total cells in each well is 6.75×10^4 cells at a ratio of 2:1 (HL2/3 to HeLa-CD4-LTR-β-gal cells). Culture cells at 37° C. with 95% air/5% CO2 for about 24 hours.\nRemove the medium row by row, immediately followed by addition of 50 μl/well of Lysis Solution (Roche Lysis Buffer containing protease inhibitors). Incubate for 60 minutes at 15-25° C. with mild shaking (200-300 rpm). While waiting, dilute 1 volume of concentrated substrate with 99 volumes of Reaction Buffer to make working substrate solution.\nAdd 100 μl of the substrate reagent to each well row by row using 12-channel pipette. Incubate for 90 minutes at room temperature with mild shaking (200-300 rpm). While waiting, bring proper volume of Accelerator II solution to room temperature. Add 50 μl of the Accelerator II to each well row by row using 12-channel pipette. Measure light emission with a microplate luminometer. The chemiluminescence readout is reported as light units per second.\nThe inhibition of HIV entry inhibitors, including TNX-355, T20, SIM.4, and sCD4, was tested on the co-cultivation-induced fusion between the two cell lines (HL2/3 to HeLa-CD4-LTR-β-gal cells). TNX-355 is a humanized anti-CD4 domain 2 antibody, T20 a synthetic oligopeptide mimicking the […] HR-2 region, SIM.4 a monoclonal anti-CD4 domain 1 antibody, and sCD4 is a soluble extracellular portion of CD4 molecule. Multiple levels of each reagent were tested following the procedures described in the Materials and Methods.\nAssay specificity was addressed by comparing the inhibitory activity of TNX-355 to those of two structurally similar but functionally irrelevant antibodies. These antibodies are TNX-224 (a humanized antibody IgG4 which differs in complementary determining regions (CDR) but share a majority of sequence homology to TNX-355) and TNX-901 (a humanized antibody IgG1).", "data": [{"molecule": "TNX-355: humanized anti-CD4 domain 2 antibody, IgG4", "values": [{"measurement": "Response Chemiluminescence", "setting": "reagent 0.1 ng/ml", "result": "39185 ± 1260.79", "unit": "light units per second"}, {"measurement": "Response Inhibition (%)", "setting": "reagent 0.1 ng/ml", "result": 23.2, "unit": "%"}, {"measurement": "Response Chemiluminescence", "setting": "reagent 10 ng/ml", "result": "34525 ± 2281.39", "unit": "light units per second"}, {"measurement": "Response Inhibition (%)", "setting": "reagent 10 ng/ml", "result": 33.7, "unit": "%"}, {"measurement": "Response Chemiluminescence", "setting": "reagent 25 ng/ml", "result": "29152 ± 2492.87", "unit": "light units per second"}, {"measurement": "Response Inhibition (%)", "setting": "reagent 25 ng/ml", "result": 45.8, "unit": "%"}, {"measurement": "Response Chemiluminescence", "setting": "reagent 50 ng/ml", "result": "23993 ± 650.74", "unit": "light units per second"}, {"measurement": "Response Inhibition (%)", "setting": "reagent 50 ng/ml", "result": 57.3, "unit": "%"}, {"measurement": "Response Chemiluminescence", "setting": "reagent 100 ng/ml", "result": "18724 ± 989.73", "unit": "light units per second"}, {"measurement": "Response Inhibition (%)", "setting": "reagent 100 ng/ml", "result": 69.2, "unit": "%"}, {"measurement": "Response Chemiluminescence", "setting": "reagent 200 ng/ml", "result": "12312 ± 1516.60", "unit": "light units per second"}, {"measurement": "Response Inhibition (%)", "setting": "reagent 200 ng/ml", "result": 83.5, "unit": "%"}, {"measurement": "Response Chemiluminescence", "setting": "reagent 1000 ng/ml", "result": "6896 ± 383.09", "unit": "light units per second"}, {"measurement": "Response Inhibition (%)", "setting": "reagent 1000 ng/ml", "result": 95.7, "unit": "%"}, {"measurement": "Response Inhibition (%)", "setting": "reagent 10000 ng/ml", "result": 100.0, "unit": "%"}, {"measurement": "Response Chemiluminescence", "setting": "reagent 10000 ng/ml, about 24 hours co-cultivation", "result": "4978 ± 669.32", "unit": "light units per second"}, {"measurement": "Chemiluminescence", "setting": "antibody amount 0.025 μg/ml", "result": "34121 ± 714.43", "unit": "light units per second"}, {"measurement": "Inhibition", "setting": "antibody amount 0.025 μg/ml", "result": 20, "unit": "%"}, {"measurement": "Chemiluminescence", "setting": "antibody amount 1.0 μg/ml", "result": "5135 ± 432.41", "unit": "light units per second"}, {"measurement": "Inhibition", "setting": "antibody amount 1.0 μg/ml", "result": 88, "unit": "%"}]}, {"molecule": "TNX-901: humanized antibody IgG1; functionally irrelevant control (antibody, chains of the INN, looked up, V domains shown) VH: QVQLVQSGAEVKKPGASVKVSCKASGYTFSMYWLEWVRQAPGHGLEWVGEISPGTFTTNYNEKFKARATFTADTSTNTAYMELSSLRSEDTAVYYCARFSHFSGSNYDYFDYWGQGTLVTVSS VL: DILLTQSPGTLSLSPGERATLSCRASQSIGTNIHWYQQKPGQAPRLLIKYASESISGIPSRFSGSGSGTDFTLTISRLEPEDFAMYYCQQSDSWPTTFGQGTKVEIK", "values": [{"measurement": "Chemiluminescence", "setting": "antibody amount 0.025 μg/ml", "result": "42629 ± 664.10", "unit": "light units per second"}, {"measurement": "Inhibition", "setting": "antibody amount 0.025 μg/ml", "result": 0, "unit": "%"}, {"measurement": "Chemiluminescence", "setting": "antibody amount 10 μg/ml", "result": "42847 ± 1429.78", "unit": "light units per second"}, {"measurement": "Inhibition", "setting": "antibody amount 10 μg/ml", "result": 0, "unit": "%"}]}]}
